The record followed here is PubChem BioAssay (NCI).

What all share (assay): inhibition of tumour cell growth, NCI panel, 48 h
The test system of test [1] is UO-31 renal.
Test [2] deals with NCI/ADR-RES ovarian.
Test [3] relates to ACHN renal.
Test [4] deals with SNB-19 CNS.
Test [5] has as its system LOX IMVI melanoma.
Test [6] relates to RXF 393 renal.
The subject of test [7] is SK-MEL-28 melanoma.
Test [8] relates to T-47D breast.
In test [9] the test system is HOP-92 NSCLC.
Test [10] has as its system MOLT-4 leukemia.

“And” between values parts separate entries of the source, which are not always exact repeats. Identical values can stand only once.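 Briefly, cells in 96-well plates were exposed to five compound concentrations for 48 h, and endpoints were estimated by linear interpolation. GI50 = concentration required for 50% inhibition of growth. TGI is the concentration that stops growth completely.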

Regarding `Cc1ccc(Nc2nc(NCCO)c3ccccc3n2)cc1C`, the GI50 in test [1] is 5.01 µM; in test [2] it was 7.18 µM; in test [3], 11 µM; in test [4], 11.5 µM; in test [5], 3.55 µM; in test [6], 3.14 µM. In addition, the GI50 in [7] is 6.47 µM; in test [8] it was 2.29 µM; in test [9] it was 1.97 µM; in test [10], 2.86 µM. In addition, the TGI in [1] was 19 µM; in test [2] it was 20.6 µM; in test [3], 23.9 µM; in test [4], 24.8 µM; in test [5], 12.4 µM; in [6], 13.7 µM. In addition, the TGI in test [7] came out at 20.1 µM; in test [8], 10.4 µM; in test [9] it was 8.03 µM; in [10] it was 11 µM.

Consider `Cn1ccnc1C(=O)/C=C/c1ccc(CC(=O)Nc2ccc(Cl)cc2)cc1`, for which the GI50 in test [1] is 2.27 µM; in test [2], 2.22 µM; in [3], 15 µM; in [4] it was 1.77 µM; in test [5], 1.07 µM; in [6], 2.97 µM. The GI50 in test [7] is greater than 25 µM; in test [8] it was 4.3 µM; in test [9] it was greater than 25 µM; in test [10], 1.74 µM. The TGI in test [1], in test [2], in [3], in test [4], in test [5] and in test [6] was greater than 25 µM each time. The TGI in test [7], in test [8], in [9] and in [10] was greater than 25 µM each time.

As for `C[Si](C)(C)C#CCO[Si](C)(C)C`, the TGI in test [1] is greater than 100 µM; in [2], greater than 100 µM; in test [3], greater than 100 µM; in test [4] it was greater than 100 µM; in test [5], 19.9 µM; in [6], greater than 100 µM. Moreover, the TGI is greater than 100 µM in test [7], greater than 100 µM in test [8], 44.3 µM in test [9] and 58.4 µM in test [10].

On to `O=C(Nc1ccc(Cl)c([N+](=O)[O-])c1)Nc1nc2ccccc2s1`, for which the GI50 in test [1] was 2.91 µM; in [2], 2.86 µM; in [3], 3.34 µM; in test [4], 4.87 µM; in test [5], 3.98 µM; in test [6] it was 3.76 µM. For the same compound, the GI50 in [7] was 4.95 µM; in test [8], 2.48 µM; in [9], 2.34 µM; in test [10], 3.76 µM. Besides, the TGI was determined as 11.9 µM in [2]; 12.8 µM in test [3]; 30.8 µM in test [4]; 21 µM in test [5]; 11.4 µM in test [6]; 21.3 µM in [7]. In addition, the TGI was found to be 10.6 µM in test [8], 7.06 µM in [9] and 17.1 µM in test [10].

As to `O=[N+]([O-])c1ccc(N2CCN(Cc3ccccc3)CC2)c2c1no[n+]2[O-]`, the GI50 in test [1] is 1.28 µM; in [2], 2.27 µM; in test [3] it was 0.85 µM; in [4] it was 2.23 µM; in test [5], 0.558 µM; in test [6] it was 1.31 µM. Also, the GI50 in test [7] was 3.56 µM; in test [8], 1.41 µM; in [9], 1.07 µM; in [10] it was 0.194 µM. The TGI in test [1] is 2.59 µM; in test [2] it was 12.3 µM; in [3], 2.2 µM; in [4] it was 6.51 µM; in [5] it was 1.67 µM; in [6], 2.76 µM. Also, the TGI in test [7] worked out at 9.07 µM; in test [8] it was 3.89 µM; in test [9] it was 2.36 µM; in [10], 2.39 µM.

Turning to `Cn1c(C(N)=O)cc2c1-c1nc(Nc3ccccc3)ncc1CCC2`, the GI50 in test [1] was 1.92 µM; in test [2], 6.3 µM; in [3], 3.61 µM; in test [4] it was 11.5 µM; in [5] it was 4.86 µM; in [6], 1.44 µM. Moreover, the GI50 is 8.74 µM in test [7], 7.12 µM in [8], 1.47 µM in test [9] and 4.21 µM in test [10]. The TGI was 14.3 µM in test [1]; 49.8 µM in test [2]; 50.5 µM in test [3]; greater than 100 µM in [4]; 24.8 µM in test [5]; 5.34 µM in [6]. The TGI in test [7] was 61.1 µM; in [8] it was 37.4 µM; in [9], 8.32 µM; in [10] it was 50.4 µM.

On to `OCCN(CCO)N=Nc1ccc(-c2nc3ccccc3[nH]2)cc1`, for which the GI50 in test [1] was 43.8 µM; in test [2], 34 µM; in [3] it was 35.6 µM; in test [4] it was greater than 100 µM; in test [5], 12.5 µM; in test [6], 27.9 µM. Moreover, the GI50 in test [7] is 15.8 µM; in test [8] it was 19.8 µM; in test [9] it was 3.02 µM; in [10], 14.4 µM. For the same compound, the TGI was greater than 100 µM in [1]; 58 µM in test [2]; greater than 100 µM in [3]; greater than 100 µM in test [4]; 25.5 µM in [5]; 65 µM in [6]. In addition, the TGI in test [7] came out at 29.5 µM; in test [8] it was 53.1 µM; in test [9] it was 23.8 µM; in test [10], 38.5 µM.

As for `Cc1[nH]c(=O)[nH]c(=O)c1N(CCF)CCCl`, the GI50 in [1] is 723 µM and 245 µM; in test [2], 443 µM and 206 µM; in test [4], 711 µM and 250 µM; in [5], 236 µM and 290 µM and 139 µM; in test [6] it was 128 µM and 265 µM; in test [7], 256 µM and 494 µM. Besides, the GI50 in test [9] was 153 µM; in [10], 60.8 µM and 80.6 µM and 43.1 µM. Besides, the TGI in test [1] was 1940 µM and 1110 µM; in test [2], 820 µM and 1130 µM and 1090 µM; in [3] it was 1220 µM; in test [4], 1160 µM and 2500 µM and 1820 µM; in test [5], 726 µM and 671 µM and 787 µM; in [6] it was 296 µM and 662 µM and 596 µM. In addition, the TGI in [7] was 589 µM and 1140 µM and 711 µM; in [8], 1340 µM; in test [9] it was 329 µM and 466 µM and 363 µM; in [10] it was 254 µM and 393 µM and 563 µM.

In the case of `COc1ccc(CN2C(=O)/C(=C\c3cc(OC)c(OC)c(OC)c3)c3cc(OC)ccc32)cc1`, the GI50 is 2.67 µM in [1]; 2.69 µM in test [2]; 1.73 µM in [3]; 3 µM in test [4]; 1.35 µM in [5]; 1.63 µM in test [6]. Besides, the GI50 in [7] was 1.72 µM; in [8], 2.34 µM; in test [9], 1.21 µM; in [10] it was 4.07 µM. For the same compound, the TGI was 10.7 µM in test [1]; 9.11 µM in test [2]; 3.2 µM in test [3]; 10.7 µM in test [4]; 2.67 µM in test [5]; 3.47 µM in test [6]. The TGI in test [7] was 3.3 µM; in [8], 7.62 µM; in test [9], 16.8 µM; in test [10] it was greater than 100 µM.

Consider `CCN1C(=O)C/C(=C\C(C)=O)Nc2ccccc21`, for which the TGI in [1], in test [2], in [3], in [4], in [5] and in test [6] was greater than 100 µM throughout. Also, the TGI in test [7], in test [8], in test [9] and in [10] was greater than 100 µM throughout. Moreover, the GI50 in test [2], in [3] and in [8] was greater than 100 µM throughout.

On to `Oc1c(CN2CCC(N3CCOCC3)CC2)cc(Cc2cc(CN3CCC(N4CCOCC4)CC3)c(O)c3ncccc23)c2cccnc12`, for which the GI50 was 0.366 µM in test [1]; 3.54 µM in test [2]; 0.481 µM in test [3]; 0.67 µM in test [4]; 0.466 µM in test [5]; 3.06 µM in test [6]. For the same compound, the GI50 in [7] was 1.4 µM; in test [8], 1.11 µM; in test [9] it was 4.16 µM; in [10] it was 0.49 µM. Also, the TGI in test [1] was 4.48 µM; in [2], greater than 100 µM; in test [3], 12.9 µM; in test [4], greater than 100 µM; in [5], 4.54 µM; in test [6], 18.7 µM. In addition, the TGI in test [7] was found to be 22.9 µM; in test [8] it was 17 µM; in test [9] it was 36.6 µM; in [10], 12.1 µM.

Take `CC/C=C\C[C@H](O)C/C=C1/C(=O)C=C[C@@H]1C/C=C\CCCC(=O)NC(C)C`: the GI50 in test [1] is 1.94 µM; in [2], 3.28 µM; in test [3], 1.84 µM; in [4], 8.75 µM; in [5], 1.06 µM; in [6] it was 2.14 µM. The GI50 in test [7] was 2.14 µM; in test [8] it was 4.19 µM; in [9], 2.75 µM; in [10] it was 2.72 µM. For the same compound, the TGI turned out to be 4.11 µM in [1]; 13.6 µM in [2]; 3.49 µM in [3]; 22.6 µM in test [4]; 2.5 µM in [5]; 3.94 µM in test [6]. The TGI in test [7] was determined as 4.98 µM; in [8], 19.2 µM; in test [9], 6.08 µM; in [10] it was 11 µM.

`O=[N+]([O-])c1cnc(Sc2ccncn2)c([N+](=O)[O-])c1`: the GI50 was 1.55 µM in [1]; 16.6 µM in test [2]; 1.77 µM in [3]; 32.8 µM in test [4]; 3.1 µM in [5]; 1.97 µM in test [6]. Also, the GI50 was 15.6 µM in [7], 1.78 µM in test [8], 2.51 µM in [9] and 3.24 µM in test [10]. The TGI in test [1] is 2.98 µM; in [2], 33.7 µM; in [3], 3.27 µM; in test [4] it was greater than 100 µM; in test [5], 10.6 µM; in test [6], 4.17 µM. The TGI stood at 29.7 µM in test [7], 3.8 µM in test [8], 6.53 µM in test [9] and 33.1 µM in test [10].

Turning to `CCC1=C(C)/C(=C/c2[nH]c(C)c(C(=O)CCCCC(=O)OC)c2C)N=C1c1ccc[nH]1`, the GI50 in [1] is 8.78 µM; in [2], 33.2 µM; in test [3] it was 15.3 µM; in [4] it was 15.1 µM; in [5] it was 2.89 µM; in test [6] it was 11.9 µM. In addition, the GI50 in [7] is 7.25 µM; in test [8], 3.45 µM; in test [9], 3.95 µM; in test [10], 0.995 µM. The TGI is 25.5 µM in test [1]; greater than 96.4 µM in [2]; 31.1 µM in [3]; 38.4 µM in test [4]; greater than 32.3 µM in test [5]; 38.6 µM in test [6]. Besides, the TGI in test [7] came to 25.8 µM; in test [8], 13.8 µM; in test [9], 15.4 µM; in [10], 6.92 µM.

Turning to `O=C(Nc1ccc(-c2nc3cc4ccccc4cc3[nH]2)cc1)c1cccc(Br)c1`, the GI50 in test [1] is 17.6 µM; in [2], 15.3 µM; in test [3], 12.3 µM; in [4], 39.2 µM; in test [5], 6.85 µM; in test [6], 1.9 µM. Moreover, the GI50 in [7] is 4.33 µM; in [8], 4.09 µM; in test [9], 4 µM; in [10] it was 27.6 µM. The TGI is 36.1 µM in test [1]; 58.6 µM in test [2]; 31 µM in test [3]; greater than 100 µM in [4]; 20.1 µM in test [5]; 8.28 µM in test [6]. The TGI in test [7] was 16.8 µM; in test [8] it was 18.1 µM; in [9] it was 17.8 µM; in test [10] it was greater than 100 µM.
